# Laboratory results reported in PubChem BioAssay (NCI).
#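 The concentration for 50% growth inhibition is given as GI50. TGI: total growth inhibition.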
# Columns and labels:
# Experiment in all cases: NCI anticancer screen, dose series, 384-well format
# MDA-MB-468 breast = tested on: MDA-MB-468 breast
# U251 glioblastoma = tested on: U251 glioblastoma
# PC-3 prostate = tested on: PC-3 prostate
# SR leukemia = tested on: SR leukemia
# HCC-2998 colon = tested on: HCC-2998 colon
# NCI-H460 NSCLC = tested on: NCI-H460 NSCLC
# T-47D breast = tested on: T-47D breast
# MCF7 breast = tested on: MCF7 breast
# OVCAR-3 ovarian = tested on: OVCAR-3 ovarian
# UO-31 renal = tested on: UO-31 renal
# NCI-H23 lung = tested on: NCI-H23 lung
# A498 renal = tested on: A498 renal
# HOP-92 NSCLC = tested on: HOP-92 NSCLC
# SF-539 CNS = tested on: SF-539 CNS
# KM12 colon = tested on: KM12 colon
# HL-60(TB) leukemia = tested on: HL-60(TB) leukemia
# IGROV1 ovarian = tested on: IGROV1 ovarian
# LOX IMVI melanoma = tested on: LOX IMVI melanoma
# SF-268 CNS = tested on: SF-268 CNS
# ACHN renal = tested on: ACHN renal
# OVCAR-4 ovarian = tested on: OVCAR-4 ovarian
# RXF 393 renal = tested on: RXF 393 renal
# HOP-62 NSCLC = tested on: HOP-62 NSCLC
# M14 melanoma = tested on: M14 melanoma
# HT29 colon = tested on: HT29 colon
# HCT-15 colon = tested on: HCT-15 colon
# CCRF-CEM leukemia = tested on: CCRF-CEM leukemia
# MDA-MB-435 melanoma = tested on: MDA-MB-435 melanoma
# NCI-H226 lung = tested on: NCI-H226 lung
smiles,measurement,setting,value
C=C(F)C(=O)N1CCN(c2nc(OC[C@@H]3CCCN3C)nc3c2CCN(c2cccc4cccc(Cl)c24)C3)C[C@@H]1CC#N,GI50,MDA-MB-468 breast,275 nM
same,TGI,MDA-MB-468 breast,1110 nM
same,GI50,U251 glioblastoma,285 nM
same,TGI,U251 glioblastoma,994 nM
same,GI50,PC-3 prostate,723 nM
same,TGI,PC-3 prostate,2010 nM
same,GI50,SR leukemia,134 nM
same,TGI,SR leukemia,512 nM
same,GI50,HCC-2998 colon,1080 nM
same,TGI,HCC-2998 colon,2280 nM
same,GI50,NCI-H460 NSCLC,414 nM
same,TGI,NCI-H460 NSCLC,1390 nM
same,GI50,T-47D breast,430 nM
same,TGI,T-47D breast,1900 nM
same,GI50,MCF7 breast,1190 nM
same,TGI,MCF7 breast,2430 nM
same,GI50,OVCAR-3 ovarian,657 nM
same,TGI,OVCAR-3 ovarian,1880 nM
same,GI50,UO-31 renal,1150 nM
same,TGI,UO-31 renal,2370 nM
same,GI50,NCI-H23 lung,< 10 nM
same,GI50,A498 renal,471 nM
same,TGI,A498 renal,1590 nM
same,GI50,HOP-92 NSCLC,341 nM
same,TGI,HOP-92 NSCLC,931 nM
same,GI50,SF-539 CNS,472 nM
same,TGI,SF-539 CNS,1520 nM
same,GI50,KM12 colon,561 nM
same,TGI,KM12 colon,1750 nM
same,GI50,HL-60(TB) leukemia,637 nM
same,TGI,HL-60(TB) leukemia,1820 nM
same,GI50,IGROV1 ovarian,1290 nM
same,TGI,IGROV1 ovarian,2610 nM
same,GI50,LOX IMVI melanoma,1100 nM
same,TGI,LOX IMVI melanoma,2310 nM
same,GI50,SF-268 CNS,542 nM
same,TGI,SF-268 CNS,1660 nM
same,GI50,ACHN renal,992 nM
same,TGI,ACHN renal,2160 nM
same,GI50,OVCAR-4 ovarian,853 nM
same,TGI,OVCAR-4 ovarian,2120 nM
same,GI50,RXF 393 renal,379 nM
same,TGI,RXF 393 renal,1560 nM
same,GI50,HOP-62 NSCLC,< 10 nM
same,TGI,HOP-62 NSCLC,1390 nM
same,GI50,M14 melanoma,692 nM
same,TGI,M14 melanoma,1920 nM
same,GI50,HT29 colon,652 nM
same,TGI,HT29 colon,1930 nM
same,GI50,HCT-15 colon,568 nM
same,TGI,HCT-15 colon,1710 nM
same,GI50,CCRF-CEM leukemia,351 nM
same,TGI,CCRF-CEM leukemia,1340 nM
same,GI50,MDA-MB-435 melanoma,1270 nM
same,TGI,MDA-MB-435 melanoma,2550 nM
same,GI50,NCI-H226 lung,915 nM
same,TGI,NCI-H226 lung,2140 nM
